Reference: patent publication US20210338779A1, “THERAPEUTIC USE OF GLUCAGON AND COMBINATION INCLUDING THE SAME” (HANMI PHARM. CO., LTD, priority 2018, published 2021)

What was measured:
Assay type in all cases: in vivo, Mouse
[1] = system: Mice with high-fat-diet-induced obesity; assay: Experimental Example 2: co-administration of long-acting glucagon derivative and oral diabetes drug in mice with high-fat-diet-induced obesity; settings: 28 days; long-acting glucagon derivative 1.2 nmol/kg once every 2 days; Sitagliptin 49.2 mg/kg, Empagliflozin 12.3 mg/kg once a day; SAXENDA 50 nmol/kg twice a day
Method: (§1) Mice with high-fat-diet-induced obesity, which have been widely used as obesity animal models, were used for this experiment. The body weights of the mice were in the range of about 50 g to 55 g. During this experiment, mice were housed 7 mice per each group and were given ad libitum access to water. Lights were turned off between 6 P.M. and 6 A. M.
Test groups fed with high-fat diet include: Group 1: administered with an excipient not including long-acting glucagon (5 mL/kg, injection once every 2 days)-control (Vehicle), Group 2: administered with a GLP-1 analog obesity drug (SAXENDA®, 50 nmol/kg, injection twice a day), Group 3: administered with the long-acting glucagon derivative (1.2 nmol/kg, injection once every 2 days), Group 4: administered with a DPP-4 inhibitor (Sitagliptin, 49.2 mg/kg, injection once a day), Group 5: administered with an SGLT-2 inhibitor (Empagliflozin, 12.3 mg/kg, injection once a day), Group 6: co-administered with Sitagliptin (49.2 mg/kg, injection once a day) and the long-acting glucagon derivative (1.2 nmol/kg, injection once every 2 days), and Group 7: Empagliflozin (12.3 mg/kg, injection once a day) and the long-acting glucagon derivative (1.2 nmol/kg, injection once every 2 days). The long-acting glucagon derivative used in this experiment was the long-acting derivative according to Example 5.
(§2) The experiment was terminated on the 28th day, and changes in body weight of the mice in each group were measured at 2-day intervals during the progress of the experiment, and changes in blood glucose level were measured before administration and at the 1st, 4th, 7th, 10th, 13th, 16th, 19th, 22nd, 25th, and 28th days after administration. Upon termination of the experiment, the weight of fat and HOMA-IR were measured.
(§3) Statistical analysis was performed by comparing the excipient group (control) with the test groups by 1-way ANOVA.

[2] = system: Mice with high-fat-diet-induced obesity; assay: Experimental Example 1: body weight, fat, HOMA-IR and blood glucose in mice with high-fat-diet-induced obesity; settings: 28 days; long-acting glucagon derivative 1.2 nmol/kg once every 2 days; SAXENDA 50 nmol/kg twice a day; Sitagliptin 49.2 mg/kg once a day
Method: as §1
Test groups fed with high-fat diet include: Group 1: administered with an excipient not including long-acting glucagon (5 mL/kg, injection once every 2 days)-control (Vehicle), Group 2: administered with a GLP-1 analog obesity drug (SAXENDA®, 50 nmol/kg, injection twice a day), Group 3: administered with the long-acting glucagon derivative (1.2 nmol/kg, injection once every 2 days), and Group 4: administered with a DPP-4 inhibitor (Sitagliptin, 49.2 mg/kg, injection once a day).
as §2, §3

[3] = system: Mice with high-fat-diet-induced obesity; assay: Experimental Example 3: long-acting glucagon derivative and GLP-1 analogs, alone and co-administered, in mice with high-fat-diet-induced obesity; settings: 28 days; glucagon long-acting derivative 2.0 nmol/kg once every 2 days; SAXENDA 50 nmol/kg twice a day; OZEMPIC 20.5 nmol/kg, TRULICITY 2.7 nmol/kg once every 2 days
Method: as §1, with “Light was” for “Lights were”, “A.M. […]” for “A. M.”
The experiment was terminated on the 28th day, and changes in body weight of the mice in each group were measured at 2-day intervals during the progress of the experiment. Upon termination of the experiment, blood lipid levels, weights of fat, and blood glucose levels were measured. […]

Compound	weight loss (change in body weight) [1]	change in body weight compared to body weight before administration [2]	weight loss compared to the body weight before administration [3]
OC[C@H]1O[C@@H](c2ccc(Cl)c(Cc3ccc(O[C@H]4CCOC4)cc3)c2)[C@H](O)[C@@H](O)[C@@H]1O [Empagliflozin]	−10.4%		
N[C@@H](CC(=O)N1CCn2c(nnc2C(F)(F)F)C1)Cc1cc(F)c(F)cc1F [Sitagliptin]	−0.1%	−0.1%	
SAXENDA®: GLP-1 analog obesity drug (HAEGTFTSDVSSYLEGQAAKEFIAWLVRGRG; chains of the INN, looked up)	−16.3%	−16.3%	−18.10%
TRULICITY®: long-acting GLP-1 analog			−3.81%
